ChEMBL document CHEMBL1153077, “Highly tractable, sub-nanomolar non-steroidal glucocorticoid receptor agonists” (Bioorg Med Chem Lett, 2009)

Key:
[1] = Selectivity ratio of pIC50 for androgen receptor to pIC50 for human glucocorticoid receptor
[2] = Selectivity ratio of pIC50 for progesterone receptor to pIC50 for human glucocorticoid receptor
[3] = Selectivity ratio of pIC50 for estrogen receptor to pIC50 for human glucocorticoid receptor
Glucocorticoid receptor = molecular target: T1, Glucocorticoid receptor (Homo sapiens, UniProt P04150)
T1 sequence (P04150 whole entry): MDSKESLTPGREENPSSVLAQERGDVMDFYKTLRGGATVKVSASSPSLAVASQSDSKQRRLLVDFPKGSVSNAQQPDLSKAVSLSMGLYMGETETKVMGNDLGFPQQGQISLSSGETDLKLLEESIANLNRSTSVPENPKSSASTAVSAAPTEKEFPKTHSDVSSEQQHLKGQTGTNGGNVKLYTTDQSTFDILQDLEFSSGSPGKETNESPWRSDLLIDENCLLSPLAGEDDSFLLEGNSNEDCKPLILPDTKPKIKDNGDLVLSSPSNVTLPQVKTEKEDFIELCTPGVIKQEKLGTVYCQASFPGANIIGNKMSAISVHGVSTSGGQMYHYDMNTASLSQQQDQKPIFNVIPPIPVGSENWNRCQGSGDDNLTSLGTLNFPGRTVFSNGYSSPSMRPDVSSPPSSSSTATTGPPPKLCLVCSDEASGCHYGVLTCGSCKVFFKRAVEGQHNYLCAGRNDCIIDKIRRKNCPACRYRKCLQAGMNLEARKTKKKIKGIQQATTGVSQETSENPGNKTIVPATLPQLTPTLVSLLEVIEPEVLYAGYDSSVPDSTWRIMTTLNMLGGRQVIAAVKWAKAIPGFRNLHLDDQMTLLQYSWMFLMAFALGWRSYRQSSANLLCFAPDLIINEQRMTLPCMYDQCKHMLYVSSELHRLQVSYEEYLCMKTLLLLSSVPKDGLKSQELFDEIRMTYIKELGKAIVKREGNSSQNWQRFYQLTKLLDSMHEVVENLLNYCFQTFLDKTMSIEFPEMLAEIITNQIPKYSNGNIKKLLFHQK
Description: Agonist activity at GR in human A549 cells by NF-kappaB transrepression assay

| Ratio pIC50 [1] | Ratio pIC50 [2] | Ratio pIC50 [3] | IC50 (Glucocorticoid receptor) | Compound |
| --- | --- | --- | --- | --- |
| > 50 | > 50 | > 50 | – | CCN(CC(O)(CNc1cccc2c1cnn2-c1ccc(F)cc1)C(F)(F)F)C(=O)c1ccccc1F (stereo in doubt; 32E2) [listing 1 of 2 here] |
| – | – | – | 0.2 nM | CCN(CC(O)(CNc1cccc2c1cnn2-c1ccc(F)cc1)C(F)(F)F)C(=O)c1ccccc1F (racemic) [listing 1 of 2 here] |
| > 50 | > 50 | > 50 | – | CCN(CC(O)(CNc1cccc2c1cnn2-c1ccc(F)cc1)C(F)(F)F)C(=O)c1ccccc1F (stereo in doubt; 32E1) [listing 1 of 2 here] |
| – | – | – | 10 nM | CCN(CC(O)(CNc1cccc2c1cnn2-c1ccc(F)cc1)C(F)(F)F)C(=O)c1c(Cl)cccc1Cl (stereo in doubt; 38E2) [listing 1 of 2 here] |
| > 50 | > 50 | > 50 | 0.398 nM | CCN(CC(O)(CNc1cc(C)cc2c1cnn2-c1ccccc1)C(F)(F)F)C(=O)c1ccccc1 (racemic) |
| > 50 | > 50 | > 50 | 0.251 nM | CCN(CC(O)(CNc1cc(C)cc2c1cnn2-c1ccccc1)C(F)(F)F)C(=O)c1ccccc1F (racemic) |
| > 50 | > 50 | > 50 | 0.316 nM | CCN(CC(O)(CNc1cccc2c1cnn2-c1ccccc1)C(F)(F)F)C(=O)c1ccccc1F (racemic) |
| > 50 | > 50 | > 50 | – | CCN(CC(O)(CNc1cccc2c1cnn2-c1ccc(F)cc1)C(F)(F)F)C(=O)c1ccccc1F (racemic) [listing 2 of 2 here] |
| > 50 | > 50 | > 50 | – | CCN(CC(O)(CNc1cccc2c1cnn2-c1ccc(F)cc1)C(F)(F)F)C(=O)c1c(Cl)cccc1Cl (stereo in doubt; 38E1) [listing 1 of 2 here] |
| > 50 | > 50 | > 50 | 0.501 nM | CCN(CC(O)(CNc1cccc2c1cnn2-c1ccc(F)cc1)C(F)(F)F)C(=O)c1c(C)cccc1C (racemic) |
| > 50 | > 50 | > 50 | 7.94 nM | CCN(CC(O)(CNc1cccc2c1cnn2-c1ccccc1)C(F)(F)F)S(=O)(=O)c1ccc(F)cc1 (racemic) |
| > 50 | > 50 | > 50 | 5.01 nM | CN(CC(O)(CNc1cccc2c1cnn2-c1ccccc1)C(F)(F)F)C(=O)c1ccccc1 (racemic) |
| – | – | – | 0.126 nM | CCN(CC(O)(CNc1cccc2c1cnn2-c1ccc(F)cc1)C(F)(F)F)C(=O)c1c(Cl)cccc1Cl (racemic) [listing 1 of 2 here] |
| > 50 | > 50 | > 50 | 0.316 nM | CCN(CC(O)(CNc1cccc2c1cnn2-c1ccc(F)cc1)C(F)(F)F)C(=O)c1c(F)cccc1F (racemic) |
| – | – | – | 0.126 nM | CCN(CC(O)(CNc1cccc2c1cnn2-c1ccc(F)cc1)C(F)(F)F)C(=O)c1ccccc1F (stereo in doubt; 32E1) [listing 2 of 2 here] |
| > 50 | > 50 | > 50 | 0.2 nM | CCN(CC(O)(CNc1cc(C)cc2c1cnn2-c1ccc(F)cc1)C(F)(F)F)C(=O)c1ccccc1F (racemic) |
| – | – | – | 0.0794 nM | CCN(CC(O)(CNc1cccc2c1cnn2-c1ccc(F)cc1)C(F)(F)F)C(=O)c1c(Cl)cccc1Cl (stereo in doubt; 38E1) [listing 2 of 2 here] |
| > 50 | > 50 | > 50 | – | CCN(CC(O)(CNc1cccc2c1cnn2-c1ccc(F)cc1)C(F)(F)F)C(=O)c1c(Cl)cccc1Cl (stereo in doubt; 38E2) [listing 2 of 2 here] |
| > 50 | > 50 | > 50 | 0.794 nM | CCN(CC(O)(CNc1cccc2c1cnn2-c1ccccc1)C(F)(F)F)C(=O)c1ccccc1 (racemic) |
| > 50 | > 50 | > 50 | 0.398 nM | CCN(CC(O)(CNc1cc(C)cc2c1cnn2-c1ccc(F)cc1)C(F)(F)F)C(=O)c1ccccc1 (racemic) |
| > 50 | > 50 | > 50 | 0.251 nM | CCN(CC(O)(CNc1cccc2c1cnn2-c1ccc(F)cc1)C(F)(F)F)C(=O)c1ccccc1Cl (racemic) |
| > 50 | > 50 | > 50 | 3.16 nM | CCCN(CC(O)(CNc1cccc2c1cnn2-c1ccccc1)C(F)(F)F)C(=O)c1ccccc1 (racemic) |
| > 50 | > 50 | > 50 | – | CCN(CC(O)(CNc1cccc2c1cnn2-c1ccc(F)cc1)C(F)(F)F)C(=O)c1c(Cl)cccc1Cl (racemic) [listing 2 of 2 here] |
| > 50 | > 50 | > 50 | 0.794 nM | CCN(CC(O)(CNc1cccc2c1cnn2-c1ccc(F)cc1)C(F)(F)F)C(=O)c1ccccc1 (racemic) |
| – | – | – | 31.6 nM | CCN(CC(O)(CNc1cccc2c1cnn2-c1ccc(F)cc1)C(F)(F)F)C(=O)c1ccccc1F (stereo in doubt; 32E2) [listing 2 of 2 here] |
| > 50 | > 50 | > 50 | 0.316 nM | CCN(CC(O)(CNc1cccc2c1cnn2-c1ccc(F)cc1)C(F)(F)F)C(=O)c1ccccc1C (racemic) |

| Compound | Ratio pIC50 [1] | Ratio pIC50 [2] | Ratio pIC50 [3] | IC50 (Glucocorticoid receptor) |
| --- | --- | --- | --- | --- |
| CCN(CC(O)(CNc1nc(C)nc2c1cnn2-c1ccccc1)C(F)(F)F)S(=O)(=O)c1ccc(F)cc1 (racemic) | > 50 | > 50 | > 50 | 25.1 nM |
| CCC1(CC(O)(CNC(=O)c2cnn(-c3ccccc3)c2N)C(F)(F)F)CCCc2ccccc21 (racemic) | – | – | – | 1.58 nM |
| CCN(CC(O)(CNc1cccc2c1cnn2-c1ccccc1)C(F)(F)F)S(=O)(=O)c1ccccc1 (racemic) | > 50 | > 50 | > 50 | 2.51 nM |
| CCN(CC(O)(CNC(=O)c1cnn(-c2ccccc2)c1N)C(F)(F)F)S(=O)(=O)c1ccc(F)cc1 (racemic) | > 50 | > 50 | > 50 | 31.6 nM |
